What was measured:
[1] = tested on: SK-MEL-2; experiment: In vitro cytotoxic activity against human melanoma SK-MEL-2 cell line; format: functional, cell-based
[2] = tested on: A549; experiment: In vitro cytotoxic activity against human lung carcinoma A549 cell line; format: functional, cell-based

SMILES: Cc1ccc(C2CN(S(=O)(=O)c3ccc4c(c3)CCC4)C(=O)N2)cc1 (stereo not given)
- IC50 [1]: 72.5 µM
- IC50 [2]: 99.2 µM

SMILES: Cc1ccc(S(=O)(=O)N2CC(c3ccc(Br)cc3)NC2=O)cc1 (stereo not given)
- IC50 [1]: > 253 µM
- IC50 [2]: > 253 µM

SMILES: O=C1NCC(c2ccc(Cl)cc2)N1S(=O)(=O)c1ccc2c(c1)CCC2 (stereo not given)
- IC50 [1]: 161 µM
- IC50 [2]: > 265 µM

SMILES: Cc1ccc(C2CN(S(=O)(=O)c3ccccc3)C(=O)N2)cc1 (stereo not given)
- IC50 [1]: > 316 µM
- IC50 [2]: > 316 µM

SMILES: Cc1ccc(C2CN(S(=O)(=O)c3ccc(C)cc3)C(=O)N2)cc1 (stereo not given)
- IC50 [1]: > 303 µM
- IC50 [2]: > 303 µM

SMILES: O=C1NC(c2ccccc2)CN1S(=O)(=O)c1ccc2c(c1)CCC2 (stereo not given)
- IC50 [2]: 0.91 µM

SMILES: Cc1ccc(C2CN(S(=O)(=O)c3ccc(Cl)cc3)C(=O)N2)cc1 (stereo not given)
- IC50 [1]: 123 µM
- IC50 [2]: 158 µM

SMILES: Cc1ccc(C2CNC(=O)N2S(=O)(=O)c2ccc(Cl)cc2)cc1 (stereo not given)
- IC50 [1]: 255 µM
- IC50 [2]: 266 µM

SMILES: O=C1NC(c2ccccc2)CN1S(=O)(=O)c1ccccc1 (stereo not given)
- IC50 [1]: 116 µM
- IC50 [2]: 145 µM

SMILES: O=C1NC(c2ccccc2)CN1S(=O)(=O)c1ccc(Cl)cc1 (stereo not given)
- IC50 [1]: 1.43 µM
- IC50 [2]: 9.47 µM

SMILES: Cc1ccc(C2CNC(=O)N2S(=O)(=O)c2ccc3c(c2)CCC3)cc1 (stereo not given)
- IC50 [1]: 88.6 µM
- IC50 [2]: 90.3 µM

SMILES: Cc1ccc(S(=O)(=O)N2C(=O)NCC2c2ccc(Br)cc2)cc1 (stereo not given)
- IC50 [1]: 80 µM
- IC50 [2]: 67 µM

SMILES: Cc1ccc(S(=O)(=O)N2C(=O)NCC2c2ccccc2)cc1 (stereo not given)
- IC50 [1]: > 316 µM
- IC50 [2]: > 316 µM

SMILES: O=C1NC(c2ccc(Br)cc2)CN1S(=O)(=O)c1ccc2c(c1)CCC2 (stereo not given)
- IC50 [1]: 32.6 µM
- IC50 [2]: 33.9 µM

SMILES: O=C1NCC(c2ccccc2)N1S(=O)(=O)c1ccc2c(c1)CCC2 (stereo not given)
- IC50 [1]: 39 µM
- IC50 [2]: 58.5 µM

SMILES: Cc1ccc(C2CNC(=O)N2S(=O)(=O)c2ccc(C)cc2)cc1 (stereo not given)
- IC50 [1]: 234 µM
- IC50 [2]: > 303 µM

SMILES: Cc1ccc(C2CNC(=O)N2S(=O)(=O)c2ccccc2)cc1 (stereo not given)
- IC50 [1]: 144 µM
- IC50 [2]: 157 µM

SMILES: O=C1NCC(c2ccc(Br)cc2)N1S(=O)(=O)c1ccc2c(c1)CCC2 (stereo not given)
- IC50 [1]: 119 µM
- IC50 [2]: > 237 µM

SMILES: O=C1NCC(c2ccc(Br)cc2)N1S(=O)(=O)c1ccc(Cl)cc1 (stereo not given)
- IC50 [1]: 106 µM
- IC50 [2]: 84 µM

SMILES: O=C1NC(c2ccc(Cl)cc2)CN1S(=O)(=O)c1ccc2c(c1)CCC2 (stereo not given)
- IC50 [1]: 64.3 µM
- IC50 [2]: 86.3 µM

SMILES: Cc1ccc(S(=O)(=O)N2CC(c3ccccc3)NC2=O)cc1 (stereo not given)
- IC50 [1]: 2.53 µM
- IC50 [2]: 12.5 µM

SMILES: O=C(Nc1ccc(Cl)cc1)NS(=O)(=O)c1ccc2c(c1)CCC2 [SULOFENUR]
- IC50 [1]: 12.9 µM
- IC50 [2]: 11.3 µM

SMILES: O=C1NC(c2ccc(Br)cc2)CN1S(=O)(=O)c1ccc(Cl)cc1 (stereo not given)
- IC50 [1]: 111 µM
- IC50 [2]: 161 µM

Reference: ChEMBL document CHEMBL1159151, “Synthesis and evaluation of cytotoxic activity of novel arylsulfonylimidazolidinones” (Bioorg Med Chem Lett, 1996)
